ChEMBL document CHEMBL4118170, “Alkylsulfanyl analogs as potent α2δ ligands” (Bioorg Med Chem Lett, 2018)

Columns and labels:
[1] = biological target: Voltage-dependent calcium channel subunit alpha-2/delta-1 (Homo sapiens) (UniProt P54289); assay: Displacement of [3H]gabapentin from human voltage-gated Ca2+ channel alpha2delta1 subunit expressed in HEK293A cell membranes after 30 mins by liquid scintillation counting method
[2] = test system: Mus musculus; assay: Analgesic activity in db/db mouse mechanical hyperalgesia model assessed as reversal of mechanical hyperalgesia at 100 mg/kg, po pretreated for 2 hrs by Von Frey test relative to control; type: functional
[3] = Cmax in mouse at 10 mg/kg, po or 5 mg/kg, iv; type: ADME, organism-based; conditions: in vivo
[4] = Half life in mouse at 10 mg/kg, po or 5 mg/kg, iv; type: ADME, organism-based; conditions: in vivo
[5] = test system: Mus musculus; assay: AUC in mouse at 10 mg/kg, po or 5 mg/kg, iv; type: ADME, organism-based; conditions: in vivo
[6] = Clearance in mouse at 10 mg/kg, po or 5 mg/kg, iv; type: ADME, organism-based; conditions: in vivo
[7] = Oral bioavailability in mouse at 10 mg/kg; type: ADME, organism-based; conditions: in vivo
[8] = test system: Rattus norvegicus; assay: Analgesic activity in STZ-induced diabetic rat model assessed as pain threshold AUC (0 to 8 hrs) at 50 mg/kg, po by Von Frey test; type: functional, organism-based; design: time < 8 hr, dose 50 mg/kg
[9] = test system: Rattus norvegicus; assay: Analgesic activity in STZ-induced diabetic rat model assessed as pain threshold AUC (0 to 8 hrs) at 30 mg/kg, po by Von Frey test; type: functional, organism-based; design: time < 8 hr, dose 30 mg/kg
[10] = test system: Mus musculus; assay: Effect on motor coordination in mouse at 30 mg/kg, po measured over 120 secs at 2 hrs post drug administration by rota rod test; type: ADME, organism-based; conditions: in vivo
[11] = test system: Mus musculus; assay: Effect on motor coordination in mouse at 100 mg/kg, po measured over 120 secs at 2 hrs post drug administration by rota rod test; type: ADME, organism-based; conditions: in vivo
[12] = test system: Rattus norvegicus; assay: Analgesic activity in STZ-induced diabetic rat model assessed as pain threshold AUC (0 to 8 hrs) at 10 mg/kg, po by Von Frey test; type: functional, organism-based; design: dose 10 mg/kg, time < 8 hr

Chain of Voltage-dependent calcium channel subunit alpha-2/delta-1 (Homo sapiens) (P54289 25-956 limits assumed): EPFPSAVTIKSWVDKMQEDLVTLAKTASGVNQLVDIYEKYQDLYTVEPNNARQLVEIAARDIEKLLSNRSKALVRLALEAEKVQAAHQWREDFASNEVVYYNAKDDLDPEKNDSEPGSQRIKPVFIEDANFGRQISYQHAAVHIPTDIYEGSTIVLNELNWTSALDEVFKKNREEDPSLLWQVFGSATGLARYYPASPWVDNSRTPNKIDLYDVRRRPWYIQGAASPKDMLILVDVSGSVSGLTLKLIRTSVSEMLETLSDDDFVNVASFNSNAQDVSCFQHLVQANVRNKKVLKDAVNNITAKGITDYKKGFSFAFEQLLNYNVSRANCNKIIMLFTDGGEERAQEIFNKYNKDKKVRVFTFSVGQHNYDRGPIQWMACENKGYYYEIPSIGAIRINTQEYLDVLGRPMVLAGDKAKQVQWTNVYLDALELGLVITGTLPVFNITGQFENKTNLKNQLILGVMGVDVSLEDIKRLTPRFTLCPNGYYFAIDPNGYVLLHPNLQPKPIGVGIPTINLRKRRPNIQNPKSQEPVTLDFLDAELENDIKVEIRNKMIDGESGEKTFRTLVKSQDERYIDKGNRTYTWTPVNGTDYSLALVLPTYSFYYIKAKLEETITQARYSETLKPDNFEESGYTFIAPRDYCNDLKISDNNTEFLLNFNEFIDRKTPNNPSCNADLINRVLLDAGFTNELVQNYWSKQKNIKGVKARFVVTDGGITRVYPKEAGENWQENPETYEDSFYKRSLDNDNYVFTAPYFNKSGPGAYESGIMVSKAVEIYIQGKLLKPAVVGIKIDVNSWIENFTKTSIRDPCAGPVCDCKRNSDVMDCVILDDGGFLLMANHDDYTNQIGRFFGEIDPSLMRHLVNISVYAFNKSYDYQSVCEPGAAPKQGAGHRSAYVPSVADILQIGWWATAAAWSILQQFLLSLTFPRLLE
Chain of Voltage-dependent calcium channel subunit alpha-2/delta-1 (Homo sapiens) (P54289 957-1103 limits assumed): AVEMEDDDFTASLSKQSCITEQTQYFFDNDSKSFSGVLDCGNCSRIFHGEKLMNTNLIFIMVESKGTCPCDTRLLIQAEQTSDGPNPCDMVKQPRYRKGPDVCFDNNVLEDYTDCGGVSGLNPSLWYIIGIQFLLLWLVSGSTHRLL

Row | SMILES | displacement potency (concentration) [1] [nM] | Activity [2] [%] | Cmax [3] [ng/mL] | half-life [4] [h] | AUC [5] [ng·h/mL] | clearance [6] [mL/min/kg] | bioavailability [7] [%] | further results
1 | CS[C@@H](C)C[C@H](CN)CC(=O)O | 48 | 80 | 5190 | 2.4 | 12500 | 17.6 | 100 | AUC [8]: 18 g·h; AUC [9]: 10 g·h; Activity [10]: Non-Toxic; Activity [11]: Toxic
2 | CSC(C)CC(CN)CC(=O)O (mixture of isomers) | 170 | 64 |  |  |  |  |  | 
3 | CSCC(C)C(CN)CC(=O)O (centres undefined) | 150 | 2 |  |  |  |  |  | 
4 | CC(C)C[C@H](CN)CC(=O)O [PREGABALIN] | 39 | 98 | 1340 | 2.54 | 18900 | 7.77 | 88 | AUC [12]: 5.8 to 17 g·h; AUC [9]: 18 to 27 g·h; Activity [10]: Toxic; Activity [11]: Toxic
5 | COC(C)CC(CN)CC(=O)O (centres undefined) | 410 | 4 |  |  |  |  |  | 
6 | CSCCC(CN)CC(=O)O (racemic) | 480 | 12 |  |  |  |  |  | 
7 | CC(C)SCC(CN)CC(=O)O (centres undefined) | 19000 |  |  |  |  |  |  | 
8 | CCOC(C)CC(CN)CC(=O)O (centres undefined) | 970 | 22 |  |  |  |  |  | 
9 | CS[C@@H](C)C[C@@H](CN)CC(=O)O | 290 | 0 | 1610 | 5.8 | 3020 | 23.8 | 45 | 
10 | CSCC(CN)CC(=O)O (racemic) | 1000 | 9 |  |  |  |  |  | 
11 | CCS[C@@H](C)C[C@H](CN)CC(=O)O | 20 | 90 | 5610 | 2.09 | 8140 | 5.78 | 28 | AUC [12]: 6.3 g·h; AUC [9]: 19 g·h; Activity [10]: Toxic; Activity [11]: Toxic
12 | CCSC(C)CC(CN)CC(=O)O (centres undefined) | 200 | 43 |  |  |  |  |  | 
13 | COCC(C)C(CN)CC(=O)O (centres undefined) | 160 | 10 |  |  |  |  |  | 
14 | CCSCC(CN)CC(=O)O (racemic) | 1900 |  |  |  |  |  |  | 
15 | CS[C@H](C)C[C@H](CN)CC(=O)O | 620 | 4 | 6220 | 4.52 | 9980 | 17.5 | 100 | 
16 | CSC(C)C(CN)CC(=O)O (centres undefined) | 240 | 9 |  |  |  |  |  | 
17 | COCC(CN)CC(=O)O (racemic) | 3200 |  |  |  |  |  |  | 
18 | CS[C@H](C)C[C@@H](CN)CC(=O)O | 720 | 3 | 3590 | 4.42 | 5800 | 31.7 | 100 | 
19 | COCCC(CN)CC(=O)O (racemic) | 240 | 17 |  |  |  |  |  | 
20 | CCS[C@H](C)C[C@H](CN)CC(=O)O | 290 | 3 |  |  |  |  |  | 
